Measured values: US5043450A, “8-alkoxyquinolonecarboxylic acid and salts thereof” (priority 1986, dated 1991)
Read-outs that look alike come from different tables or passages of the source.

Columns and labels:
Type in all cases: cell-based
[1] = test system: B. fragilis 25285; assay: Antibacterial spectra, MIC; conditions: Bacteroides fragilis
[2] = test system: B. thetaiotaomicron (0661); assay: Antibacterial spectra, MIC; conditions: Bacteroides thetaiotaomicron
[3] = test system: C. perfringens KYA 13123; assay: microbe, parasite or virus in culture; conditions: Clostridium perfringens, KYA13123
[4] = test system: F. varium KYA 8501; assay: Antibacterial spectra, MIC; conditions: Fusobacterium varium, KYA8501
[5] = test system: E. coli ATCC 10536; assay: Antibacterial spectra, MIC; conditions: Escherichia coli, ATCC10536
[6] = test system: B. distasonis 8503; assay: Antibacterial spectra, MIC; conditions: Parabacteroides distasonis
[7] = test system: Staphylococcus aureus 209 P; assay: Antibacterial spectra, MIC
[8] = test system: E. coli ML 4707; assay: Antibacterial spectra, MIC; conditions: Escherichia coli, ML4707; 10^6 cells/ml; Gram -
Procedure: (§1) The antibacterial test was carried out according to the method designated by Japan Society of Chemotherapy.

[9] = test system: Shigella sonnei IID 969; assay: Antibacterial spectra, MIC; conditions: IID969, 10^6 cells/ml, Gram -
Procedure: as §1

[10] = test system: Proteus vulgaris IFO 3167; assay: Antibacterial spectra, MIC; conditions: IFO3167, 10^6 cells/ml, Gram -
Procedure: as §1

[11] = test system: Salmonella enteritidis IID 604; assay: Antibacterial spectra, MIC; conditions: Salmonella enterica
[12] = test system: S. aureus IID 670 (Terajima); assay: Antibacterial spectra, MIC; conditions: Staphylococcus aureus, IID670
[13] = test system: C. ramosum; assay: Antibacterial spectra, MIC; conditions: Thomasclavelia ramosa
[14] = test system: Fusobacterium mortiferum 4249; assay: Antibacterial spectra, MIC
[15] = test system: F. necrophorum S-45; assay: Antibacterial spectra, MIC; conditions: Fusobacterium necrophorum, S45
[16] = test system: Peptococcus magnus KY 017; assay: Antibacterial spectra, MIC; conditions: Finegoldia magna, KY017
[17] = test system: Escherichia coli NIHJ JC-2; assay: Antibacterial spectra, MIC; conditions: NIHJJC2
[18] = test system: P. maltophilia GIFU 2491; assay: Antibacterial spectra, MIC; conditions: Stenotrophomonas maltophilia, GIFU2491
[19] = test system: Serratia marcescens IID 618; assay: Antibacterial spectra, MIC
[20] = test system: P. aeruginosa IFO 12689; assay: Antibacterial spectra, MIC; conditions: Pseudomonas aeruginosa, IFO12689
[21] = test system: Eubacterium lentum GAI 5242; assay: Antibacterial spectra, MIC; conditions: Eggerthella lenta, GAI5242
[22] = test system: Acinetobacter anitratus IID 876; assay: Antibacterial spectra, MIC; conditions: Acinetobacter calcoaceticus, IID876
[23] = test system: P. cepacia GIFU 518; assay: Antibacterial spectra, MIC; conditions: Burkholderia cepacia, GIFU518
[24] = test system: Veillonella parvula KYA 10790; assay: Antibacterial spectra, MIC; conditions: KYA10790
[25] = test system: B. fragilis 0558; assay: Antibacterial spectra, MIC; conditions: Bacteroides fragilis
[26] = test system: Enterobacter cloacae IID 977; assay: Antibacterial spectra, MIC
[27] = test system: Citrobacter freundii IID 976; assay: Antibacterial spectra, MIC
[28] = test system: P. mirabilis IID 994; assay: Antibacterial spectra, MIC; conditions: Proteus mirabilis, IID994
[29] = test system: Pseudomonas aeruginosa V-1; assay: Antibacterial spectra, MIC; conditions: V1
[30] = test system: Bacteroides fragilis GM 7000; assay: Antibacterial spectra, MIC; conditions: GM7000
[31] = test system: Pst. micros UPI 5464-1; assay: Antibacterial spectra, MIC; conditions: Parvimonas micra, UPI54641
[32] = test system: S. aureus Smith; assay: Antibacterial spectra, MIC; conditions: Staphylococcus aureus
[33] = test system: Bacilus subtilis PCI 219; assay: Antibacterial spectra, MIC; conditions: Bacillus subtilis, PCI219
[34] = test system: K. pneumoniae 1-220S; assay: Antibacterial spectra, MIC; conditions: Klebsiella pneumoniae, 1220S
[35] = test system: P. aeruginosa IID 1210; assay: Antibacterial spectra, MIC; conditions: Pseudomonas aeruginosa, IID1210
[36] = test system: Alcaligenes faecalis 0114002; assay: Antibacterial spectra, MIC
[37] = test system: Peptostreptococcus anaerobius KYA 27337; assay: Antibacterial spectra, MIC
[38] = test system: Propionibacterium acens 11828; assay: Antibacterial spectra, MIC
[39] = test system: Morganella morganii IID 602; assay: Antibacterial spectra, MIC
[40] = test system: Klebsiella pneumoniae KY(GN)6445; assay: Antibacterial spectra, MIC
[41] = test system: Yersinia enterocolitica IID 981; assay: Antibacterial spectra, MIC
[42] = test system: S. epidermidis IID 866; assay: Antibacterial spectra, MIC; conditions: Staphylococcus epidermidis, IID866
[43] = test system: Clostridium difficile I-E; assay: Antibacterial spectra, MIC; conditions: Clostridioides difficile
[44] = test system: B. vulgatus KYA 29327; assay: Antibacterial spectra, MIC; conditions: Phocaeicola vulgatus, KYA29327
[45] = 10^6 cells/ml, Gram -, read-out: MIC
[46] = 10^6 cells/ml, Gram +, read-out: MIC

Measured: MIC

COc1c(N2CCN(C)CC2)c(F)cc2c(=O)c(C(=O)O)cn(C3CC3)c12 [Exp. 2, 1-cyclopropyl-6-fluoro-1,4-dihydro-8-methoxy-7-(4-methyl-1-piperazinyl)-4-oxo-3-quinolinecarboxylic acid]
0.025 µg/mL: [5] | [8] | [9] | [10] | [33]
0.78 µg/mL: [14]; [45] | [15]; [45] | [37]; KYA27337, 10^6 cells/ml, Gram +, read-out: MIC
0.39 µg/mL: [1] | [3] | [6] | [24] | [29] | [30] | [31] | [36] | [44]
0.05 µg/mL: [27]; IID976, 10^6 cells/ml, Gram -, read-out: MIC | [28]; [45] | [40]; [45]
0.1 µg/mL: [7]; [46] | [11]; [45] | [12]; [46] | [19]; IID618, 10^6 cells/ml, Gram -, read-out: MIC | [22]; [45] | [26]; IID977, 10^6 cells/ml, Gram -, read-out: MIC | [32]; [46] | [34]; [45] | [39]; IID602, 10^6 cells/ml, Gram -, read-out: MIC | [41]; IID981, 10^6 cells/ml, Gram -, read-out: MIC | [42]; [46]
6.25 µg/mL: [4]; [45] | [38]; [46]
1.56 µg/mL: [2]; [45] | [20]; [45] | [23]; [45] | [35]; [45] | [43]; [46]
0.2 µg/mL: [16]; [46] | [18]; [45] | [21]; [46] | [25]; [45]
3.13 µg/mL: [13]
0.0125 µg/mL: [17]

COc1c(N2CCC(CN)C2)c(F)cc2c(=O)c(C(=O)O)cn(C3CC3)c12 (stereo not drawn) [Exp. 7, 7-(3-aminomethyl-1-pyrrolidinyl)-1-cyclopropyl-6-fluoro-1,4-dihydro-8-methoxy-4-oxo-3-quinolinecarboxylic acid]
0.39 µg/mL: [2] | [21] | [30] | [36] | [38] | [43] | [44]
0.025 µg/mL: [7] | [12] | [17] | [33]
0.1 µg/mL: [24] | [26]; IID977 | [31] | [34] | [41]; IID981
0.2 µg/mL: [1] | [3] | [14] | [15] | [18] | [19]; IID618 | [25] | [29] | [39]; IID602
0.05 µg/mL: [5] | [8] | [9] | [10] | [11] | [16] | [22] | [27]; IID976 | [28] | [32] | [37]; KYA27337 | [40] | [42]
0.78 µg/mL: [4] | [6] | [13] | [20] | [23] | [35]

COc1c(N2CCNC(C)C2)c(F)cc2c(=O)c(C(=O)O)cn(C3CC3)c12 (stereo not drawn) [Exp. 3, 1-cyclopropyl-6-fluoro-1,4-dihydro-8-methoxy-7-(3-methyl-1-piperazinyl)-4-oxo-3-quinolinecarboxylic acid]
0.025 µg/mL: [10] | [27]; IID976 | [28] | [33] | [40]
3.13 µg/mL: [13] | [43]
0.78 µg/mL: [2] | [6] | [14] | [44]
0.0125 µg/mL: [5] | [8] | [9]
0.2 µg/mL: [16] | [18] | [21] | [24] | [29] | [31]
0.05 µg/mL: [11] | [26]; IID977 | [34] | [41]; IID981
≤ 0.0063 µg/mL: [17]
0.1 µg/mL: [7] | [12] | [19]; IID618 | [22] | [32] | [39]; IID602 | [42]
1.56 µg/mL: [20] | [23] | [35]
0.39 µg/mL: [1] | [3] | [15] | [25] | [30] | [36] | [37]; KYA27337
6.25 µg/mL: [4] | [38]
